Results reported in US20260297042A1, “BIARYLAMIDE DERIVATIVES AND THEIR USE AS PKMYT1 INHIBITORS” (CANCER RESEARCH TECHNOLOGY LIMITED, priority 2023, published 2026).

What was measured:
OVCAR 3 cells = assay: Cancer cell line proliferation assay, ATP-based cell viability (Cell Titre Glow), OVCAR 3 (CCNE1-amplified); settings: KYSE30 (normal CCNE1) GI50 vs. OVCAR 3 (CCNE1-amplified) GI50
In short: (§1)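 GI50 values, the concentrations halving cell growth, were derived from ATP-based luminescence (Cell Titre Glo) after PKMYT1 inhibitor exposure. Cells tested were OVCAR 3, an ovarian line with amplified CCNE1, and KYSE-30, which has normal CCNE1.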

Human PKMYT1 = biological target: T1, Human PKMYT1 (Homo sapiens, UniProt Q99640); assay: PKMYT1 biochemical ADP-Glo enzymatic assay; settings: ADP-Glo
T1 construct: Human PKMYT1 75-362 was cloned as a TEV cleavable 6xHis fusion; 6xHis (TEV cleavable) (cleaved yes); made in house; host or cells: bacterial cells
T1 sequence (Q99640 75-362): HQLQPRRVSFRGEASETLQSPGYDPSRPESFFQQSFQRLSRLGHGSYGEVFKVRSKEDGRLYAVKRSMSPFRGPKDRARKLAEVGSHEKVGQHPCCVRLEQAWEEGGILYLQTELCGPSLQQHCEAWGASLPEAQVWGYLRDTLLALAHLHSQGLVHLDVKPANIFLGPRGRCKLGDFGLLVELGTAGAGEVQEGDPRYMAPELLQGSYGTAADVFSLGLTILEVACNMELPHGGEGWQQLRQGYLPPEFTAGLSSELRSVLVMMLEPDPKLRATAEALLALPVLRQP
In short: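 Compounds were titrated over 10 points (3-fold steps), then 15 nM purified PKMYT1 kinase domain (aa 75-362) and 500 µM ATP were added in pH 7.5 HEPES buffer. After 60 min at 26 °C, remaining ATP was depleted and ADP converted to luminescence for IC50 fitting.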

WEE1 = biological target: T2, WEE1 (Homo sapiens, UniProt P30291); assay: Selectivity versus WEE1 assay (ADP-Glo enzymatic assay); format: biochemical; settings: for IC50: ADP-Glo; for PKMYT1 vs. WEE1 selectivity: fold difference in selectivity for PKMYT1 over WEE1
T2 construct: purchased Thermo Fisher PR7373A
T2 sequence (P30291 whole entry): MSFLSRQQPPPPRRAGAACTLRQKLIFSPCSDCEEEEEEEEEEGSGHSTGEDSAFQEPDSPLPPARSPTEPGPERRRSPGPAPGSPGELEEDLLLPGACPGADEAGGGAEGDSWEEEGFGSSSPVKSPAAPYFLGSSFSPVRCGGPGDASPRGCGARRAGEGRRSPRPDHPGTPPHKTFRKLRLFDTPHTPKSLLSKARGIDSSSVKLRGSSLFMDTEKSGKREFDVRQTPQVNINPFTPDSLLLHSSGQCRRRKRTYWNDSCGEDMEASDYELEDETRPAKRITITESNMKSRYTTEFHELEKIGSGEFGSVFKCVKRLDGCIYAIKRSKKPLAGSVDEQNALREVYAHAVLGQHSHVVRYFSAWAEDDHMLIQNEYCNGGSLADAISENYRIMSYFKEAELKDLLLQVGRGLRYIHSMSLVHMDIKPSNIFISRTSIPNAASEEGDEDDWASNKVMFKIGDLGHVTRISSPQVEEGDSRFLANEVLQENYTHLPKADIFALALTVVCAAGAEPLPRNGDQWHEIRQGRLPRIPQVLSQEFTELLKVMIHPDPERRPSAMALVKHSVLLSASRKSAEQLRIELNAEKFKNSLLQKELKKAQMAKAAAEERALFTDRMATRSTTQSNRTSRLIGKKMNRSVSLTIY
In short: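 Compounds were pre-dispensed, enzyme (15 nM final) was added in pH 7.5 HEPES buffer, and ATP ([…]) then started a 60 min incubation at 26° C. Afterwards ADP-Glo reagents were added in turn and luminescence was measured to derive IC50 values.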

KYSE-30 cells = assay: Cancer cell line proliferation assay, ATP-based cell viability (Cell Titre Glow), KYSE-30 (normal CCNE1); settings: Homo sapiens, KYSE-30 cells (normal CCNE1), concentration that achieves 50% cell growth proliferation inhibition, read-out: KYSE30 Gl50
In short: as §1

[1] = biological target: T3, Cellular PKMYT1 Biomarker CDK1 pT14 (Homo sapiens, UniProt Q99640); assay: Inhibition of cellular PKMYT1 biomarker CDK1 pT14 in OVCAR 3 cells (immunoblot); format: cell-based; settings: 20 hours incubation
T3 construct: read-out CDK1 phospho-T14 immunoblot
T3 sequence (Q99640 1-499): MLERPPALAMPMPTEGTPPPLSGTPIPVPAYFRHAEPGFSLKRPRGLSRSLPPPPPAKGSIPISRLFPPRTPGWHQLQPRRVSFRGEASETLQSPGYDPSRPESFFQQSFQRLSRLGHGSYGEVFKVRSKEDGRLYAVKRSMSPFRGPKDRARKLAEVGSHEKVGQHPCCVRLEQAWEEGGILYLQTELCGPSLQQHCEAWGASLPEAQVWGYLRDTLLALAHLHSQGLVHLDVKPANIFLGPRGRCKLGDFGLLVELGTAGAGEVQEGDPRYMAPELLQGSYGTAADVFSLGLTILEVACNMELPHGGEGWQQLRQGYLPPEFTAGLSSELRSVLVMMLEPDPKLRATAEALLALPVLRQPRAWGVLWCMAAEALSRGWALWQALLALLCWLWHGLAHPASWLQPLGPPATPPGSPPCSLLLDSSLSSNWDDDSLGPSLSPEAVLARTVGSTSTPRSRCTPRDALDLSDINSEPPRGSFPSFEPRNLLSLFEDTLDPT
In short: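 Confluent OVCAR 3 cells treated with a compound concentration range for 20 h at 37 °C. Lysates analysed by automated capillary immunoblot for CDK1 phospho-T14, with vinculin, fluorescence detection; IC50 by regression.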

[2] = 15 nM PKMYT1 kinase domain, 500 µM ATP, 60 minutes at 26° C., banded
[3] = 15 nM WEE1, 60 minutes at 26° C., banded
[4] = banded, ">N" = at least in this band but could be higher
[5] = PKMYT1 kinase domain 15 nM, banded values

Structure (SMILES)	Selectivity ratio KYSE30 Gl50 vs. OVCAR3 Gl50 (OVCAR 3 cells)	IC50 (Human PKMYT1; [2])	IC50 (WEE1; [3])	PKMYT1 vs. WEE1 selectivity (WEE1; [4])	GI50 (KYSE-30 cells)	IC50 [1]	IC50 (Human PKMYT1; [5])	IC50 (WEE1; WEE1 15 nM, banded values)	PKMYT1 vs. WEE1 selectivity (WEE1; banded)
Cc1cn(C2COC2)nc1Nc1ncc(C(=O)Nc2c(C)ccc(O)c2C)s1 [BAA-269, N-(3-hydroxy-2,6-dimethylphenyl)-2-((4-methyl-1-(oxetan-3-yl)-1H-pyrazol-3-yl)amino) thiazole-5-carboxamide]	Y (>20 fold)	< 50 nM	50 to 1000 nM	W (10-<100 fold)	500 to 5000 nM	< 100 nM	–	–	–
Cc1cc(F)cnc1Nc1ncc(C(=O)Nc2c(C)ccc(O)c2C)s1 [BAA-419, 2-((5-fluoro-3-methylpyridin-2-yl)amino)-N-(3-hydroxy-2,6-dimethylphenyl)thiazole-5-carboxamide]	Y (>20 fold)	–	–	–	> 5000 nM	100 to 1000 nM	< 50 nM	> 11000 nM	Y (1000-5000 fold)
Cc1ccc(O)c(C)c1NC(=O)c1cnc(Nc2cccc(C3CC3)n2)s1 [BAA-409, 2-((6-cyclopropylpyridin-2-yl)amino)-N-(3-hydroxy-2,6-dimethylphenyl)thiazole-5-carboxamide]	Y (>20 fold)	–	–	–	500 to 5000 nM	< 100 nM	< 50 nM	1000 to 11000 nM	X (100-<1000 fold)
Cc1ccc(O)c(C)c1NC(=O)c1cnc(Nc2nn(CC(F)F)cc2Br)s1 [BAA-587, 2-((4-bromo-1-(2,2-difluoroethyl)-1H-pyrazol-3-yl)amino)-N-(3-hydroxy-2,6-dimethylphenyl)thiazole-5-carboxamide]	Y (>20 fold)	–	–	–	500 to 5000 nM	< 100 nM	< 50 nM	1000 to 11000 nM	X (100-<1000 fold)
Cc1cn(-c2cnn(C(C)C)c2)nc1Nc1ncc(C(=O)Nc2c(C)ccc(O)c2C)s1 [BAA-391, N-(3-hydroxy-2,6-dimethylphenyl)-2-((1′-isopropyl-4-methyl-1′H-[1,4′-bipyrazol]-3-yl)amino)thiazole-5-carboxamide]	Y (>20 fold)	< 50 nM	1000 to 11000 nM	X (100-<1000 fold)	500 to 5000 nM	< 100 nM	–	–	–
Cc1cn(CCF)nc1Nc1ncc(C(=O)Nc2c(C)ccc(O)c2C)s1 [BAA-470, 2-((1-(2-fluoroethyl)-4-methyl-1H-pyrazol-3-yl)amino)-N-(3-hydroxy-2,6-dimethylphenyl)thiazole-5-carboxamide]	Y (>20 fold)	–	–	–	> 5000 nM	< 100 nM	< 50 nM	1000 to 11000 nM	X (100-<1000 fold)
Cc1cn(CC#N)nc1Nc1ncc(C(=O)Nc2c(C)ccc(O)c2Br)s1 [BAA-584, N-(2-Bromo-3-hydroxy-6-methylphenyl)-2-((1-(cyanomethyl)-4-methyl-1H-pyrazol-3-yl)amino)thiazole-5-carboxamide]	Y (>20 fold)	–	–	–	> 5000 nM	100 to 1000 nM	< 50 nM	50 to 1000 nM	W (10-<100 fold)
Cc1ccc(O)c(C)c1NC(=O)c1cnc(Nc2cccc(-c3cccnc3)n2)s1 [BAA-397, 2-([2,3′-bipyridin]-6-ylamino)-N-(3-hydroxy-2,6-dimethylphenyl)thiazole-5-carboxamide]	Y (>20 fold)	–	–	–	500 to 5000 nM	< 100 nM	< 50 nM	1000 to 11000 nM	W (10-<100 fold)
Cc1ccc(O)c(C)c1NC(=O)c1cnc(Nc2cccc(N(C)CCC#N)n2)s1 [BAA-401, 2-((6-((2-cyanoethyl)(methyl)amino)pyridin-2-yl)amino)-N-(3-hydroxy-2,6-dimethylphenyl)thiazole-5-carboxamide]	Y (>20 fold)	–	–	–	500 to 5000 nM	< 100 nM	< 50 nM	1000 to 11000 nM	W (10-<100 fold)
Cc1ccc(O)c(C)c1NC(=O)c1cnc(Nc2cc(N3CCOCC3)ncn2)s1 [BAA-571, N-(3-hydroxy-2,6-dimethylphenyl)-2-((6-morpholinopyrimidin-4-yl)amino)thiazole-5-carboxamide]	Y (>20 fold)	–	–	–	500 to 5000 nM	< 100 nM	< 50 nM	50 to 1000 nM	W (10-<100 fold)
Cc1ccc(NC(=O)c2ccc(C(F)(F)F)cc2)nc1Nc1ncc(C(=O)Nc2c(C)ccc(O)c2C)s1 [BAA-328, N-(3-Hydroxy-2,6-dimethylphenyl)-2-((3-methyl-6-(4-(trifluoromethyl)benzamido)pyridin-2-yl)amino)thiazole-5-carboxamide]	Y (>20 fold)	50 to 1000 nM	> 11000 nM	X (100-<1000 fold)	> 5000 nM	< 100 nM	–	–	–
Cc1ccc(O)c(C)c1NC(=O)c1cnc(Nc2nc(N3CCN(C)CC3)ccc2Cl)s1 [BAA-414, 2-((3-chloro-6-(4-methylpiperazin-1-yl)pyridin-2-yl)amino)-N-(3-hydroxy-2,6-dimethylphenyl)thiazole-5-carboxamide]	Y (>20 fold)	–	–	–	500 to 5000 nM	< 100 nM	< 50 nM	1000 to 11000 nM	X (100-<1000 fold)
CCN(C(=O)Cn1cc(C)c(Nc2ncc(C(=O)Nc3c(C)ccc(O)c3C)s2)n1)C1CC1 [BAA-551, 2-((1-(2-(cyclopropyl(ethyl)amino)-2-oxoethyl)-4-methyl-1H-pyrazol-3-yl)amino)-N-(3-hydroxy-2,6-dimethylphenyl)thiazole-5-carboxamide]	Y (>20 fold)	–	–	–	500 to 5000 nM	< 100 nM	< 50 nM	1000 to 11000 nM	X (100-<1000 fold)
Cc1ccc(O)c(C)c1NC(=O)c1cnc(Nc2cc(C(F)(F)F)cc(Cl)n2)s1 [BAA-321, 2-((6-chloro-4-(trifluoromethyl)pyridin-2-yl)amino)-N-(3-hydroxy-2,6-dimethylphenyl)thiazole-5-carboxamide]	Y (>20 fold)	50 to 1000 nM	> 11000 nM	X (100-<1000 fold)	> 5000 nM	100 to 1000 nM	–	–	–
Cc1ccc(O)c(C)c1NC(=O)c1cnc(Nc2cc(C(F)(F)F)nc(N3CCOCC3)n2)s1 [BAA-326, N-(3-hydroxy-2,6-dimethylphenyl)-2-((2-morpholino-6-(trifluoromethyl)pyrimidin-4-yl)amino)thiazole-5-carboxamide]	Y (>20 fold)	50 to 1000 nM	> 11000 nM	X (100-<1000 fold)	500 to 5000 nM	< 100 nM	–	–	–
Cc1ccc(O)c(C)c1NC(=O)c1cnc(Nc2cccc(N3CCC(NC(=O)OC(C)(C)C)CC3)n2)s1 [BAA-327, tert-butyl(1-(6-((5-((3-hydroxy-2,6-dimethylphenyl)carbamoyl)thiazol-2-yl)amino)pyridin-2-yl)piperidin-4-yl)carbamate]	Y (>20 fold)	50 to 1000 nM	> 11000 nM	X (100-<1000 fold)	500 to 5000 nM	100 to 1000 nM	–	–	–
